How the values were obtained:
cervical erosion = assay: Clinical test of topical intravaginal sucralfate gel for cervical erosion (colposcopic examination, signs and symptoms); type: in vivo, women; details: after six weeks of treatment (so in the source); both formulations together
Excerpt: Based on the observed colposcopic picture of the situation and on the seriousness of the possible accompanying inflammation state the patients under test have been classified according to a conventional classification of the cervical pathology, according to the following grade scheme.
Grade I: simple cervicitis; presence of mosaic-shaped lesions and ectopia; reduced leuconrhea and absence of dyspareunia (abnormal pain during sexual intercourse);
Grade II: cervicitis with extended erosion of the portio (30% of the surface); presence of altered epithelium; occasional blood discharge and occasional dyspareunia;
Grade III: cervicitis with extended erosion of the portio (50% of the surface); presence of ectopia; frequent blood discharge; leucorrhea and dyspareunia.
The 18 women, after final diagnosis, were divided into two test groups of nine patients each, in order to evaluate the effectiveness of the treatment according to the invention in two different formulations. The first formulation, continuing sucralfate at a concentration of 25% by weight as well as polycarbophil as a mucoadhesive/bioadhesive ingredient, corresponds to the preparation referred to above as Formulation 2, while the second formulation under test containing sucralfate at a concentration of 12.5% by weight as well as polycarbophil, corresponds to the Formulation 3. […]

duodenal ulcer = details: oral dose of 1 g four times daily, for 4-8 weeks; cited from earlier work
NSAID-induced ulceration = details: cited from earlier work

## β-D-fructofuranosyl-α-D-glucopyranoside octakis(hydrogen sulfate) aluminium complex [sucralfate]
Cervical erosion
  Patients considered on complete recovery: 16 patients out of 18
Duodenal ulcer
  Clinical effectiveness (cases): 75 % of cases
NSAID-induced ulceration; duodenal localizations
  Effectiveness in NSAID-induced ulceration, duodenal localizations: effective
NSAID-induced ulceration; when gastric lesions are present
  Effect in NSAID-induced ulceration, gastric lesions: only a symptomatic and non-reparative effect

From patent US20040192640A1, “Use of sucralfate for the treatment of cervical erosion” (priority 2004, published 2004)
